Consider twelve compounds from the SangsterLogP compilation.

Usually logP stands for the decadic logarithm of the partition coefficient of the neutral form, usually between octanol and water. Read a low logP as a more hydrophilic compound. As usually defined, the logD is the decadic logarithm of the distribution of all forms, ionised or not, between an organic phase and buffer at a given pH. Lower therefore signals lower lipophilicity.

The first data set is described as follows: method code SF-AS, from DOI: 10.1081/jlc-120027619.
Conditions: not given
In turn, `Cc1cccc2c3c(ccc12)C1=C(C(=O)C3=O)[C@@H](C)CO1` had a logP of 3.14.

Another data set is described as follows: method code RP-HPLC, from DOI: 10.1081/jlc-120027619. As to conditions: pH 3.1.
In turn, `O=C(O)C(O)Cc1ccc(O)c(O)c1` (configuration not stated) gave a logD of 0.11. On the same count and under the same terms, the figure for `Cc1cc(O)c2c(c1)C(=O)c1cc(O)cc(O)c1C2=O` is 4.48; for `Cc1coc2c1C(=O)C(=O)c1c-2ccc2c(C)cccc12` it is 4.65.

Compound `O=C1c2cccc(O)c2C(=O)c2c(O)cc(CO)cc21` had a logD of 3.18. Compound `C[C@H]1COC2=C1C(=O)C(=O)c1c2ccc2c1CCCC2(C)C` came in with a logD of 4.72. On the same count and under the same terms, the figure for `Cc1cc(O)c2c(c1)C(=O)c1cccc(O)c1C2=O` is 4.39; for `O=Cc1ccc(O)c(O)c1` it is 0.82; for `Cc1coc2c1C(=O)C(=O)c1c-2ccc2c1CCCC2(C)C` it is 5.4. Same read-out and setting: the figure for `COc1cc(O)c2c(c1)C(=O)c1cc(C)cc(O)c1C2=O` is 4.93; for `O=c1c(-c2ccc(O)cc2)coc2c([C@@H]3O[C@H](CO)[C@@H](O)[C@H](O)[C@H]3O)c(O)ccc12` it is 1.34; for `O=C(O)c1cc(O)c2c(c1)C(=O)c1cccc(O)c1C2=O` it is 3.68.
